Data from the supplement of paper PMC12463676, “Small-molecule dissolution of stress granules by redox modulation benefits ALS models” (Nature Chemical Biology, 2025).

compound: NC(=O)CCCCC1CCSS1 [lipoamide]; assay: thermal stability z-score vs DMSO; higher = more thermally stabilized by treatment; settings: HeLa; lipoamide concentration 100 µM; arsenate co-treatment: 1 mM arsenate 1 h
Method: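 Cellular thermal proteome profiling in HeLa cells. Cells were treated with 100 µM lipoamide for 1 h, with or without 1 mM arsenate for a further 1 h, then heated to ten temperatures (37-66.3 °C), and soluble protein was quantified by TMT mass spectrometry relative to 0.1% DMSO controls. The thermal stability score (sum of log2 fold changes minus the abundance score) was transformed to a z-score; mean of n = 3 experiments.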
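Further: each temperature applied for 3 min, abundance score taken as mean log2 fold change at the two lowest temperatures, z-score obtained by mean subtraction and division by SD.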

UniProt O94888, sequence (O94888 whole entry): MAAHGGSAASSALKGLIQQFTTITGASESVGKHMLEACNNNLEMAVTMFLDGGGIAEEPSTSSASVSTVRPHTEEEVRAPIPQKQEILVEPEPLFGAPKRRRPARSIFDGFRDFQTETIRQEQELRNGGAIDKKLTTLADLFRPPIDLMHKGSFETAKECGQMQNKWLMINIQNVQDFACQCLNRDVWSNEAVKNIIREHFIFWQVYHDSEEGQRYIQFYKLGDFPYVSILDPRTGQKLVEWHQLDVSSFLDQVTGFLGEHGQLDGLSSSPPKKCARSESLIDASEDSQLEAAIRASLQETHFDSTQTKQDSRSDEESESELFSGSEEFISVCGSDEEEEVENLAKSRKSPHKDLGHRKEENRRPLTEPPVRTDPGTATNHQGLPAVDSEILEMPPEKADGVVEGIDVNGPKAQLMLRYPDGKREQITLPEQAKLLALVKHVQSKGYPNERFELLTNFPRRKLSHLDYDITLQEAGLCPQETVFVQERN
UniProt Q6P1M0, sequence (Q6P1M0 whole entry, looked up): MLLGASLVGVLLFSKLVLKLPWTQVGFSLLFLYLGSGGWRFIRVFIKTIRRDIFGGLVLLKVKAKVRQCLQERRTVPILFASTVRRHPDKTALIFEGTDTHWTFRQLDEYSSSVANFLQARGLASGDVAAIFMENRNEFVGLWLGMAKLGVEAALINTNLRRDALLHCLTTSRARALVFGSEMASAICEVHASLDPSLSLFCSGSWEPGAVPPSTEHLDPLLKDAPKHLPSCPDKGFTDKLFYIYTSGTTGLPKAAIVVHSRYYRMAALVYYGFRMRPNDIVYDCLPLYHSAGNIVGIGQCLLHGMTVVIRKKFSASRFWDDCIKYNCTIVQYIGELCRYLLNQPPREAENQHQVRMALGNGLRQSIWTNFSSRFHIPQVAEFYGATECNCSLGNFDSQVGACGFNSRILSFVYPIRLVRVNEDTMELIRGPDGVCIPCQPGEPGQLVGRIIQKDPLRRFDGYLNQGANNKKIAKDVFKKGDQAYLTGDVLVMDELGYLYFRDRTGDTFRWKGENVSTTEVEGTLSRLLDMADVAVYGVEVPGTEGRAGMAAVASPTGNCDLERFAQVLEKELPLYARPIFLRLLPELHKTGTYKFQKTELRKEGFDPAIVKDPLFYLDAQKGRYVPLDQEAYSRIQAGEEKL
UniProt Q86X10, sequence (Q86X10 whole entry): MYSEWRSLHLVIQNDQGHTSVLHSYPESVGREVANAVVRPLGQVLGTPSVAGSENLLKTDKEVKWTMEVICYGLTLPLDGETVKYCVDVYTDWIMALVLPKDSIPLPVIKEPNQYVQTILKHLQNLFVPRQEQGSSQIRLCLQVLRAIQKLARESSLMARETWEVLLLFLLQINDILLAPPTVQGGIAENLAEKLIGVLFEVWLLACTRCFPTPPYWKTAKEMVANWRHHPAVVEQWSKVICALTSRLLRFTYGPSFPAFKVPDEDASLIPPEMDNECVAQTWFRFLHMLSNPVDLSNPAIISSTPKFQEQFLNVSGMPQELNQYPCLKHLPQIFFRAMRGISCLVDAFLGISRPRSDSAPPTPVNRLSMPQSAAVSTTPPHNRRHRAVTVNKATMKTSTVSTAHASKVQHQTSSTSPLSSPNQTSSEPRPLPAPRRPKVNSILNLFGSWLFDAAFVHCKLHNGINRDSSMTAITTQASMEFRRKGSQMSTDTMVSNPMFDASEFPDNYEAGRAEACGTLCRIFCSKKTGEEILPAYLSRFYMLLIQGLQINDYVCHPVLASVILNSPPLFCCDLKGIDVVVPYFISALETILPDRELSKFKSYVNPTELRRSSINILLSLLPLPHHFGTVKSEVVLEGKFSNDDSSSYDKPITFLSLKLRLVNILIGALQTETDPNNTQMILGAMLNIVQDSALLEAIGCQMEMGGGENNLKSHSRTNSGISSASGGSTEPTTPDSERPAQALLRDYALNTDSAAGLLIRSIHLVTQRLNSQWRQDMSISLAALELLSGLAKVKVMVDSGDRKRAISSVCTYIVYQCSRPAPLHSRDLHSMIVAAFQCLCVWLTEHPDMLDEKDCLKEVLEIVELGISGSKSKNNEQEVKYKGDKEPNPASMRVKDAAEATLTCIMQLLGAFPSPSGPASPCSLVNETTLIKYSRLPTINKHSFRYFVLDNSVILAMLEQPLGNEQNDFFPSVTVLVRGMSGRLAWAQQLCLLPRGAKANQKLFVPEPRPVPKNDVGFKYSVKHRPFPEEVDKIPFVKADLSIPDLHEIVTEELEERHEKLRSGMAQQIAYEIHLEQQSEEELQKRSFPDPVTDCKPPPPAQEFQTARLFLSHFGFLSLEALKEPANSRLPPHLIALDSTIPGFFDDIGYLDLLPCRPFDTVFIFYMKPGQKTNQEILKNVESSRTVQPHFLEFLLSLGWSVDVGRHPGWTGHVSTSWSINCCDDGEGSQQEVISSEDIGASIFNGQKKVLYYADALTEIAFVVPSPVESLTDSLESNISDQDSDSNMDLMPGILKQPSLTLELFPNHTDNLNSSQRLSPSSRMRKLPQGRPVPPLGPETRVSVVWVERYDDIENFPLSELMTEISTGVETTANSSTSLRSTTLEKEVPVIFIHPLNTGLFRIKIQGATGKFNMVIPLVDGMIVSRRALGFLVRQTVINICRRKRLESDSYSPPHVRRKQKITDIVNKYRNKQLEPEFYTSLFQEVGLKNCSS
UniProt P10109, sequence (P10109 whole entry): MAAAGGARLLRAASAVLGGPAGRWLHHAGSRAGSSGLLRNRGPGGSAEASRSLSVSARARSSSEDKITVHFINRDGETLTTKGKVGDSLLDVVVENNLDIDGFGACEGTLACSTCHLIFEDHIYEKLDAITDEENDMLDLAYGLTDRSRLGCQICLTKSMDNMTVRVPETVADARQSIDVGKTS
UniProt Q9H999, sequence (Q9H999 whole entry, looked up): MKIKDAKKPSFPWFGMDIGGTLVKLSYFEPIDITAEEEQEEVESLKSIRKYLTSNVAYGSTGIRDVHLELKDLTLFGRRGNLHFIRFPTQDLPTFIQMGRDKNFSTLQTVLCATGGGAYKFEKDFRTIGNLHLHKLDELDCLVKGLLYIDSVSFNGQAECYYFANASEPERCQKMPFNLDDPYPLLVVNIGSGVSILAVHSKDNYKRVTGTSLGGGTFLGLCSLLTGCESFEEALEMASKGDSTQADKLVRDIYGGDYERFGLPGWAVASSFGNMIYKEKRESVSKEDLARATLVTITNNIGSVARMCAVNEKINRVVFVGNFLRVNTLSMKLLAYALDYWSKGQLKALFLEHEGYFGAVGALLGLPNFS
UniProt Q8N684, sequence (Q8N684 whole entry): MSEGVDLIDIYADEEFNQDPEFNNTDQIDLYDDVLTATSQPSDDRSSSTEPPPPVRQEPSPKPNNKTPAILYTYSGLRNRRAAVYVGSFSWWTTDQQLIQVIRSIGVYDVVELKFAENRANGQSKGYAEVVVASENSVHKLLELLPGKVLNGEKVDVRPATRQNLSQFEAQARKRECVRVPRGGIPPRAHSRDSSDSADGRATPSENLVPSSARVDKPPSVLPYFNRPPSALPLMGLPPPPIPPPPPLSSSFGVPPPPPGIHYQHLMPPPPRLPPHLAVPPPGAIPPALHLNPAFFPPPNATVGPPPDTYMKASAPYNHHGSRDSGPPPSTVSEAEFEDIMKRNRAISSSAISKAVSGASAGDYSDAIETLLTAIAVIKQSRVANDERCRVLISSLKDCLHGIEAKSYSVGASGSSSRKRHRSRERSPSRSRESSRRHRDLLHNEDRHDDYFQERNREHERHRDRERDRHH
UniProt A8MTT3, sequence (A8MTT3 whole entry): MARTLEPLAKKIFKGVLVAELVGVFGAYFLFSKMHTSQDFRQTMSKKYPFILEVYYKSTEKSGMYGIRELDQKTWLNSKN
UniProt Q15043, sequence (Q15043 whole entry): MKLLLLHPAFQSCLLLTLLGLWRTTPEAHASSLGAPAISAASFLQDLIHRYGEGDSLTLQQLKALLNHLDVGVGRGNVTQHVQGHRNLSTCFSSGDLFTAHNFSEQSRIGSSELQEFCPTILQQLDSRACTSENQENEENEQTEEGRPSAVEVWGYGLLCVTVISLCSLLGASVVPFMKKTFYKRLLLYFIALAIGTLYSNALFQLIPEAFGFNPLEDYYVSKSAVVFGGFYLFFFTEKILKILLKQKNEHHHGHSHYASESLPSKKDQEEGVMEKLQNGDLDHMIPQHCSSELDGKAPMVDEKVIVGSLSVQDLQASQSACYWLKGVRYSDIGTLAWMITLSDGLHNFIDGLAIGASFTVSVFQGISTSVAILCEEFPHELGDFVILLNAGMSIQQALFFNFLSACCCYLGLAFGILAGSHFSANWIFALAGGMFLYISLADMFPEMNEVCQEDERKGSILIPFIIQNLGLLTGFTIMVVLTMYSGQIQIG
UniProt Q8N4Q0, sequence (Q8N4Q0 whole entry): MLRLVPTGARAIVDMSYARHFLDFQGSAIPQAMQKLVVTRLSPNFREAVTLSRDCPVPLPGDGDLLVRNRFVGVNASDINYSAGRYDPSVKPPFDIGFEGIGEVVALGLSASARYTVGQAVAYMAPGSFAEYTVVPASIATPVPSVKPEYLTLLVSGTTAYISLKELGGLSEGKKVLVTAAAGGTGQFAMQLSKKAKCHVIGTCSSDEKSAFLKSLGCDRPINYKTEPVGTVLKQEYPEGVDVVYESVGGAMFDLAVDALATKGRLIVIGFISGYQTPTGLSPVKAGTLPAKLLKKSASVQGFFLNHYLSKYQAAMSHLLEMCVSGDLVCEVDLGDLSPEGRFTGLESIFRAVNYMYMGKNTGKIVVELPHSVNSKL
UniProt O76071, sequence (O76071 whole entry): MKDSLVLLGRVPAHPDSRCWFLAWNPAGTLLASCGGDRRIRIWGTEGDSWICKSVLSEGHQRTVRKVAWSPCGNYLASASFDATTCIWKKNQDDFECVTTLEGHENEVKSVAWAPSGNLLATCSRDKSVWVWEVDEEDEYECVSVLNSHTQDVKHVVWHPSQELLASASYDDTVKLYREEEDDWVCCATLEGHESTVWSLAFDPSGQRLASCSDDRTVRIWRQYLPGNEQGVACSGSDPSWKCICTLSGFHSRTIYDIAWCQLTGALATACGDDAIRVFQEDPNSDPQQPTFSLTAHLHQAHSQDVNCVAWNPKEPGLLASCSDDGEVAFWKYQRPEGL

Target	thermal stability z-score
CIAO1 (UniProt O76071)	0.164
NDUFAF1 (UniProt Q9Y375)	-0.593
PDCD10 (UniProt Q9BUL8)	0.00718
RALA (UniProt P11233)	0.107
ABLIM1 (UniProt O14639)	0.77
EI24 (UniProt O14681)	0.221
SEC23A (UniProt Q15436)	-0.106
MLX (UniProt Q9UH92)	-0.0303
ALDH3A2 (UniProt P51648)	1.63
CPSF7 (UniProt Q8N684)	0.18
PCNA (UniProt P12004)	0.353
HPCAL1 (UniProt P37235)	1.09
NELFA (UniProt Q9H3P2)	-0.1
STIM1 (UniProt Q13586)	-1.28
FOXO3 (UniProt O43524)	-0.0135
KDELC1 (UniProt Q6UW63)	-2.9
NUDT3 (UniProt O95989)	0.511
TANC1 (UniProt Q9C0D5)	0.142
CYP51A1 (UniProt Q16850)	-0.665
PLPP2 (UniProt O43688)	-0.387
SMU1 (UniProt Q2TAY7)	-0.141
SKP1 (UniProt P63208)	0.337
PPP1R14B (UniProt Q96C90)	0.068
LMO7 (UniProt Q8WWI1)	1.17
BACE2 (UniProt Q9Y5Z0)	-0.766
SEC61A1 (UniProt P61619)	1.11
CDC42EP1 (UniProt Q00587)	-0.844
CUTC (UniProt Q9NTM9)	0.342

Target	thermal stability z-score
DCTPP1 (UniProt Q9H773)	1.22
ZADH2 (UniProt Q8N4Q0)	0.265
RALGAPB (UniProt Q86X10)	-0.0332
MCTS1 (UniProt Q9ULC4)	-0.523
PXN (UniProt P49023)	-0.261
KIF3A (UniProt Q9Y496)	-0.146
MRPL46 (UniProt Q9H2W6)	-0.218
PCCA (UniProt P05165)	0.202
CALD1 (UniProt Q05682)	0.261
GGA2 (UniProt Q9UJY4)	-0.076
SLC39A14 (UniProt Q15043)	-0.0157
PRPF3 (UniProt O43395)	2.57
CEBPZOS (UniProt A8MTT3)	0.351
PANK3 (UniProt Q9H999)	1.22
HN1L	0.978
DDX46 (UniProt Q7L014)	0.411
RMDN3 (UniProt Q96TC7)	-0.522
ARPC4 (UniProt P59998)	1.12
NDUFA9 (UniProt Q16795)	0.188
MPZL1 (UniProt O95297)	0.0579
SWAP70 (UniProt Q9UH65)	-0.295
RAD54B (UniProt Q9Y620)	-0.335
LETM1 (UniProt O95202)	0.0577
SRSF9 (UniProt Q13242)	2.14
FDX1 (UniProt P10109)	-0.234
SLC27A4 (UniProt Q6P1M0)	-0.824
UBXN7 (UniProt O94888)	-0.462

same assay, conditions: HeLa; lipoamide concentration 100 µM; arsenate co-treatment: none

Target	thermal stability z-score
CIAO1 (UniProt O76071)	0.0342
NDUFAF1 (UniProt Q9Y375)	-0.335
PDCD10 (UniProt Q9BUL8)	-0.0724
RALA (UniProt P11233)	-0.0183
ABLIM1 (UniProt O14639)	1.47
EI24 (UniProt O14681)	-0.249
SEC23A (UniProt Q15436)	0.228
MLX (UniProt Q9UH92)	-0.272
ALDH3A2 (UniProt P51648)	1.32
CPSF7 (UniProt Q8N684)	0.191
PCNA (UniProt P12004)	-0.0687
HPCAL1 (UniProt P37235)	1.31
NELFA (UniProt Q9H3P2)	-0.0674
STIM1 (UniProt Q13586)	-1.03
FOXO3 (UniProt O43524)	-0.184
KDELC1 (UniProt Q6UW63)	-2.19
NUDT3 (UniProt O95989)	0.241
TANC1 (UniProt Q9C0D5)	1.34
CYP51A1 (UniProt Q16850)	-0.0953
PLPP2 (UniProt O43688)	-0.14
SMU1 (UniProt Q2TAY7)	-0.0867
SKP1 (UniProt P63208)	0.557
PPP1R14B (UniProt Q96C90)	0.535
LMO7 (UniProt Q8WWI1)	0.27
BACE2 (UniProt Q9Y5Z0)	-0.974
SEC61A1 (UniProt P61619)	0.235
CDC42EP1 (UniProt Q00587)	-0.776
CUTC (UniProt Q9NTM9)	0.211

Target	thermal stability z-score
DCTPP1 (UniProt Q9H773)	0.682
ZADH2 (UniProt Q8N4Q0)	0.233
RALGAPB (UniProt Q86X10)	-0.00538
MCTS1 (UniProt Q9ULC4)	-0.0571
PXN (UniProt P49023)	-0.432
KIF3A (UniProt Q9Y496)	0.418
MRPL46 (UniProt Q9H2W6)	0.1
PCCA (UniProt P05165)	0.198
CALD1 (UniProt Q05682)	0.218
GGA2 (UniProt Q9UJY4)	-0.0378
SLC39A14 (UniProt Q15043)	-0.137
PRPF3 (UniProt O43395)	2.44
CEBPZOS (UniProt A8MTT3)	0.365
PANK3 (UniProt Q9H999)	0.571
HN1L	0.827
DDX46 (UniProt Q7L014)	0.501
RMDN3 (UniProt Q96TC7)	-0.501
ARPC4 (UniProt P59998)	0.913
NDUFA9 (UniProt Q16795)	0.112
MPZL1 (UniProt O95297)	0.206
SWAP70 (UniProt Q9UH65)	0.217
RAD54B (UniProt Q9Y620)	-0.346
LETM1 (UniProt O95202)	0.374
SRSF9 (UniProt Q13242)	0.947
FDX1 (UniProt P10109)	-0.162
SLC27A4 (UniProt Q6P1M0)	-0.358
UBXN7 (UniProt O94888)	0.55

compound: O=[As]([O-])(O)O.[K+] [potassium arsenate]; assay: as above; settings: HeLa; arsenate concentration 1 mM
Method: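 Cellular thermal proteome profiling in HeLa cells treated with 1 mM arsenate for 1 h (DMSO pretreatment), heated to ten temperatures (37-66.3 °C). Soluble protein was quantified by TMT mass spectrometry relative to DMSO controls; the thermal stability score was transformed to a z-score; mean of n = 3 experiments.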

Target	thermal stability z-score
CIAO1 (UniProt O76071)	-1.32
NDUFAF1 (UniProt Q9Y375)	-0.0374
PDCD10 (UniProt Q9BUL8)	0.151
RALA (UniProt P11233)	-0.459
ABLIM1 (UniProt O14639)	-1.82
EI24 (UniProt O14681)	-0.123
SEC23A (UniProt Q15436)	-0.0157
MLX (UniProt Q9UH92)	0.0805
ALDH3A2 (UniProt P51648)	0.0815
CPSF7 (UniProt Q8N684)	-0.36
PCNA (UniProt P12004)	1.56
HPCAL1 (UniProt P37235)	0.342
NELFA (UniProt Q9H3P2)	-0.107
STIM1 (UniProt Q13586)	0.0811
FOXO3 (UniProt O43524)	0.19
KDELC1 (UniProt Q6UW63)	0.422
NUDT3 (UniProt O95989)	-0.213
TANC1 (UniProt Q9C0D5)	1.14
CYP51A1 (UniProt Q16850)	0.803
PLPP2 (UniProt O43688)	-0.114
SMU1 (UniProt Q2TAY7)	0.656
SKP1 (UniProt P63208)	-0.000141
PPP1R14B (UniProt Q96C90)	-0.284
LMO7 (UniProt Q8WWI1)	-1.54
BACE2 (UniProt Q9Y5Z0)	1.09
SEC61A1 (UniProt P61619)	0.55
CDC42EP1 (UniProt Q00587)	0.213
CUTC (UniProt Q9NTM9)	-0.934

Target	thermal stability z-score
DCTPP1 (UniProt Q9H773)	0.499
ZADH2 (UniProt Q8N4Q0)	0.319
RALGAPB (UniProt Q86X10)	-0.112
MCTS1 (UniProt Q9ULC4)	-1.02
PXN (UniProt P49023)	-2
KIF3A (UniProt Q9Y496)	0.523
MRPL46 (UniProt Q9H2W6)	-0.0514
PCCA (UniProt P05165)	-0.314
CALD1 (UniProt Q05682)	0.103
GGA2 (UniProt Q9UJY4)	-0.335
SLC39A14 (UniProt Q15043)	-0.236
PRPF3 (UniProt O43395)	-0.0589
CEBPZOS (UniProt A8MTT3)	0.526
PANK3 (UniProt Q9H999)	0.672
HN1L	0.214
DDX46 (UniProt Q7L014)	-1.2
RMDN3 (UniProt Q96TC7)	0.289
ARPC4 (UniProt P59998)	0.369
NDUFA9 (UniProt Q16795)	0.475
MPZL1 (UniProt O95297)	0.179
SWAP70 (UniProt Q9UH65)	0.3
RAD54B (UniProt Q9Y620)	-0.753
LETM1 (UniProt O95202)	0.0137
SRSF9 (UniProt Q13242)	0.0934
FDX1 (UniProt P10109)	-0.0279
SLC27A4 (UniProt Q6P1M0)	-0.197
UBXN7 (UniProt O94888)	-0.679
